Assay results published in US20230172930A1, “USE OF COMPLEMENT FACTOR D INHIBITORS ALONE OR IN COMBINATION WITH ANTI-C5 ANTIBODIES FOR TREATMENT OF PAROXYSMAL NOCTURNAL HEMOGLOBINURIA” (Alexion Pharmaceuticals, Inc., priority 2020, published 2023).

Test system: PNH patients with an inadequate response to eculizumab
Assay: Phase 2 open-label study of danicopan added to eculizumab: laboratory markers of PNH (Hgb, LDH, reticulocytes, bilirubin)
Type: in vivo, human
Conditions: for Direct bilirubin, mean / LDH, mean / Reticulocytes, mean / Total bilirubin, mean: all patients N=11
Description: All doses were taken approximately 15-30 minutes after completion of a meal or snack. Dose escalations, to a maximum of 200 mg three times a day, were based on safety and hemoglobin values and permitted at 4-week intervals through week 12 at 50 mg increments. If the patient had not already reached the 200 mg three times daily maximal dose by week 12, escalation was permitted if clinically indicated. […] Patients completing treatment with clinical benefit entered a long-term extension phase.
Descriptive statistics are provided for biochemical, quality-of-life measurements, and transfusion data. Continuous variables are summarized with mean, median, minimum and maximum values. Categorical variables, e.g., transfusion-independent, are summarized with counts and percentages. Missing values were not imputed.

[1] = Patient A, Baseline, before danicopan, on eculizumab 900 mg q14d
[2] = Patient A, Week 12, danicopan 150 mg TID + eculizumab 900 mg q14d
[3] = Patient A, Week 24, danicopan 150 mg TID + eculizumab 900 mg q14d
[4] = Patient B, Baseline, before danicopan, on eculizumab 1200 mg q14d
[5] = Patient B, Week 12, danicopan 100 mg TID + eculizumab 900 mg q14d
[6] = Patient B, Week 24, danicopan 100 mg TID + eculizumab 900 mg q14d
[7] = Patient C, Baseline, before danicopan, on eculizumab 900 mg q14d
[8] = Patient C, Week 12, danicopan 150 mg TID + eculizumab 900 mg q14d
[9] = Patient C, Week 24, danicopan 150 mg TID + eculizumab 900 mg q14d
[10] = Patient D, Baseline, before danicopan, on eculizumab 900 mg q14d
[11] = Patient D, Week 12, danicopan 150 mg TID + eculizumab 900 mg q14d
[12] = Patient D, Week 24, danicopan 150 mg TID + eculizumab 900 mg q14d
[13] = Patient E, Baseline, before danicopan, on eculizumab 1200 mg q14d
[14] = Patient E, Week 12, danicopan 150 mg TID + eculizumab 1200 mg q14d
[15] = Patient E, Week 24, danicopan 150 mg TID + eculizumab 1200 mg q14d
[16] = Patient F, Baseline, before danicopan, on eculizumab 900 mg q14d
[17] = Patient F, Week 12, danicopan 150 mg TID + eculizumab 900 mg q14d
[18] = Patient F, Week 24, danicopan 150 mg TID + eculizumab 900 mg q14d
[19] = Patient G, Baseline, before danicopan, on eculizumab 1500 mg q14d
[20] = Patient G, Week 12, danicopan 100 mg TID + eculizumab 1500 mg q14d
[21] = Patient G, Week 24, danicopan 100 mg TID + eculizumab 1500 mg q14d
[22] = Patient H, Baseline, before danicopan, on eculizumab 900 mg q14d
[23] = Patient H, Week 12, danicopan 200 mg TID + eculizumab 900 mg q14d
[24] = Patient H, Week 24, danicopan 200 mg TID + eculizumab 900 mg q14d
[25] = Patient I, Baseline, before danicopan, on eculizumab 900 mg q14d
[26] = Patient I, Week 12, danicopan 100 mg TID + eculizumab 900 mg q14d
[27] = Patient I, Week 24, danicopan 200 mg TID + eculizumab 900 mg q14d
[28] = Patient J, Baseline, before danicopan, on eculizumab 1200 mg q14d
[29] = Patient J, Week 12, danicopan 100 mg TID + eculizumab 1200 mg q14d
[30] = Patient J, Week 24, danicopan 200 mg TID + eculizumab 1200 mg q14d
[31] = Patient K, Baseline, before danicopan, on eculizumab 900 mg q14d
[32] = Patient K, Week 12, danicopan 100 mg TID + eculizumab 900 mg q14d
[33] = Patient K, Week 24, danicopan 150 mg TID + eculizumab 900 mg q14d
[34] = Baseline, before danicopan, on eculizumab
[35] = Week 24, danicopan 100-200 mg TID + eculizumab

`CC(=O)c1nn(CC(=O)N2C[C@H](F)C[C@H]2C(=O)Nc2cccc(Br)n2)c2ccc(-c3cnc(C)nc3)cc12` [Danicopan, danicopan] showed a Direct bilirubin [1] of 0.44 mg/dL, a Hgb [1] of 5.00 g/dL and an LDH [1] of 1.7 ×ULN. The Reticulocytes [1] was 159 10^9/μL, the Total bilirubin [1] was 2.14 mg/dL and the Direct bilirubin [2] was 0.33 mg/dL. For the same compound, the Hgb [2] was 7.70 g/dL, the LDH [2] was 1.2 ×ULN and the Reticulocytes [2] was 121 10^9/μL. For the same compound, the Total bilirubin [2] was 1.80 mg/dL, the Direct bilirubin [3] was 0.48 mg/dL and the Hgb [3] was 8.50 g/dL. For the same compound, the LDH [3] was 1.1 ×ULN, the Reticulocytes [3] was 112 10^9/μL and the Total bilirubin [3] was 2.40 mg/dL. It also gave a Direct bilirubin [4] of 0.29 mg/dL, a Hgb [4] of 9.80 g/dL and an LDH [4] of 1.0 ×ULN. The Reticulocytes [4] was 250 10^9/μL, the Total bilirubin [4] was 1.24 mg/dL and the Direct bilirubin [5] was 0.18 mg/dL. For the same compound, the Hgb [5] was 11.8 g/dL, the LDH [5] was 0.8 ×ULN and the Reticulocytes [5] was 123 10^9/μL. For the same compound, the Total bilirubin [5] was 0.89 mg/dL, the Direct bilirubin [6] was 0.20 mg/dL and the Hgb [6] was 13.3 g/dL. For the same compound, the LDH [6] was 0.9 ×ULN, the Reticulocytes [6] was 162 10^9/μL and the Total bilirubin [6] was 0.81 mg/dL. The Direct bilirubin [7] was 0.24 mg/dL, the Hgb [7] was 7.60 g/dL and the LDH [7] was 0.8 ×ULN. For the same compound, the Reticulocytes [7] was 141 10^9/μL, the Total bilirubin [7] was 1.03 mg/dL and the Direct bilirubin [8] was 0.16 mg/dL. For the same compound, the Hgb [8] was 9.00 g/dL, the LDH [8] was 0.9 ×ULN and the Reticulocytes [8] was 97.0 10^9/μL. The Total bilirubin [8] was 0.580 mg/dL, the Direct bilirubin [9] was 0.16 mg/dL and the Hgb [9] was 9.70 g/dL. For the same compound, the LDH [9] was 0.9 ×ULN, the Reticulocytes [9] was 87.0 10^9/μL and the Total bilirubin [9] was 0.580 mg/dL. The Direct bilirubin [10] was 0.43 mg/dL, the Hgb [10] was 10.4 g/dL and the LDH [10] was 1.1 ×ULN. For the same compound, the Reticulocytes [10] was 191 10^9/μL, the Total bilirubin [10] was 2.26 mg/dL and the Direct bilirubin [11] was 0.15 mg/dL. For the same compound, the Hgb [11] was 11.7 g/dL, the LDH [11] was 1.2 ×ULN and the Reticulocytes [11] was 56.0 10^9/μL. For the same compound, the Total bilirubin [11] was 0.700 mg/dL, the Direct bilirubin [12] was 0.17 mg/dL and the Hgb [12] was 11.5 g/dL. The LDH [12] was 0.9 ×ULN, the Reticulocytes [12] was 56.0 10^9/μL and the Total bilirubin [12] was 0.650 mg/dL. For the same compound, the Direct bilirubin [13] was 0.72 mg/dL, the Hgb [13] was 8.60 g/dL and the LDH [13] was 1.2 ×ULN. For the same compound, the Reticulocytes [13] was 120 10^9/μL, the Total bilirubin [13] was 2.35 mg/dL and the Direct bilirubin [14] was 0.40 mg/dL. The Hgb [14] was 7.60 g/dL, the LDH [14] was 1.3 ×ULN and the Reticulocytes [14] was 179 10^9/μL. For the same compound, the Total bilirubin [14] was 2.22 mg/dL, the Direct bilirubin [15] was 0.60 mg/dL and the Hgb [15] was 9.40 g/dL. For the same compound, the LDH [15] was 1.2 ×ULN, the Reticulocytes [15] was 90.0 10^9/μL and the Total bilirubin [15] was 1.75 mg/dL. It also gave a Direct bilirubin [16] of 0.82 mg/dL, a Hgb [16] of 7.20 g/dL and an LDH [16] of 0.9 ×ULN. The Reticulocytes [16] was 405 10^9/μL, the Total bilirubin [16] was 3.93 mg/dL and the Direct bilirubin [17] was 0.49 mg/dL. The Hgb [17] was 9.30 g/dL, the LDH [17] was 0.9 ×ULN and the Reticulocytes [17] was 243 10^9/μL. For the same compound, the Total bilirubin [17] was 1.50 mg/dL, the Direct bilirubin [18] was 0.78 mg/dL and the Hgb [18] was 10.6 g/dL. For the same compound, the LDH [18] was 0.9 ×ULN, the Reticulocytes [18] was 253 10^9/μL and the Total bilirubin [18] was 2.95 mg/dL. The Direct bilirubin [19] was 0.39 mg/dL, the Hgb [19] was 7.10 g/dL and the LDH [19] was 0.6 ×ULN. For the same compound, the Reticulocytes [19] was 262 10^9/μL, the Total bilirubin [19] was 1.20 mg/dL and the Direct bilirubin [20] was 0.50 mg/dL. The Hgb [20] was 9.40 g/dL, the LDH [20] was 0.5 ×ULN and the Reticulocytes [20] was 200 10^9/μL. The Total bilirubin [20] was 1.90 mg/dL, the Direct bilirubin [21] was 0.39 mg/dL and the Hgb [21] was 9.10 g/dL. The LDH [21] was 0.9 ×ULN, the Reticulocytes [21] was 239 10^9/μL and the Total bilirubin [21] was 1.25 mg/dL. The Direct bilirubin [22] was 0.78 mg/dL, the Hgb [22] was 7.70 g/dL and the LDH [22] was 1.5 ×ULN. The Reticulocytes [22] was 238 10^9/μL, the Total bilirubin [22] was 2.18 mg/dL and the Direct bilirubin [23] was 0.53 mg/dL. The Hgb [23] was 7.30 g/dL, the LDH [23] was 1.8 ×ULN and the Reticulocytes [23] was 206 10^9/μL. It also gave a Total bilirubin [23] of 2.04 mg/dL, a Direct bilirubin [24] of 0.52 mg/dL and a Hgb [24] of 7.50 g/dL. The LDH [24] was 1.4 ×ULN, the Reticulocytes [24] was 169 10^9/μL and the Total bilirubin [24] was 1.57 mg/dL. The Direct bilirubin [25] was 0.23 mg/dL, the Hgb [25] was 7.70 g/dL and the LDH [25] was 0.9 ×ULN. For the same compound, the Reticulocytes [25] was 200 10^9/μL, the Total bilirubin [25] was 0.56 mg/dL and the Direct bilirubin [26] was 0.18 mg/dL. The Hgb [26] was 10.8 g/dL, the LDH [26] was 0.9 ×ULN and the Reticulocytes [26] was 110 10^9/μL. It also gave a Total bilirubin [26] of 0.34 mg/dL, a Direct bilirubin [27] of 0.18 mg/dL and a Hgb [27] of 11.5 g/dL. For the same compound, the LDH [27] was 0.9 ×ULN, the Reticulocytes [27] was 96 10^9/μL and the Total bilirubin [27] was 0.32 mg/dL. For the same compound, the Direct bilirubin [28] was 0.68 mg/dL, the Hgb [28] was 7.80 g/dL and the LDH [28] was 1.3 ×ULN. For the same compound, the Reticulocytes [28] was 258 10^9/μL, the Total bilirubin [28] was 3.24 mg/dL and the Hgb [29] was 10.2 g/dL. For the same compound, the Reticulocytes [29] was 292 10^9/μL, the Direct bilirubin [30] was 0.23 mg/dL and the Hgb [30] was 11.0 g/dL. For the same compound, the LDH [30] was 1.2 ×ULN, the Reticulocytes [30] was 152 10^9/μL and the Total bilirubin [30] was 1.14 mg/dL. For the same compound, the Direct bilirubin [31] was 0.64 mg/dL, the Hgb [31] was 8.40 g/dL and the LDH [31] was 0.9 ×ULN. For the same compound, the Reticulocytes [31] was 188 10^9/μL, the Total bilirubin [31] was 3.76 mg/dL and the Direct bilirubin [32] was 0.39 mg/dL. For the same compound, the Hgb [32] was 9.40 g/dL, the LDH [32] was 1.2 ×ULN and the Reticulocytes [32] was 88.0 10^9/μL. For the same compound, the Total bilirubin [32] was 1.85 mg/dL, the Direct bilirubin [33] was 0.31 mg/dL and the Hgb [33] was 11.5 g/dL. The LDH [33] was 1.1 ×ULN, the Reticulocytes [33] was 69.0 10^9/μL and the Total bilirubin [33] was 1.41 mg/dL. The raise in hemoglobin (addition of danicopan to eculizumab in patients that continued to be anemic) was “over 2 g/dL”, the “Direct bilirubin, mean” value [34] was 0.51 mg/dL and the “LDH, mean” value [34] was 1.06 ×ULN. The “Reticulocytes, mean” value [34] was 219 10^9/μL, the “Total bilirubin, mean” value [34] was 2.17 mg/dL and the “Direct bilirubin, mean” value [35] was 0.37 mg/dL. For the same compound, the “LDH, mean” value [35] was 1.04 ×ULN, the “Reticulocytes, mean” value [35] was 135 10^9/μL and the “Total bilirubin, mean” value [35] was 1.35 mg/dL. For the same compound, the “mean increase in Hgb” value (at 24 Weeks of treatment vs baseline, danicopan added to eculizumab) was 2.4 g/dL, the “mean increase in Hgb” value (danicopan added to background eculizumab) was 2.4 gram and the raise in hemoglobin (patient without transfusion history (Patient A), baseline 5 g/dL, at 24-weeks) was “over 3 g/dL”.
